Results as given in doi:10.1101/2025.07.30.667614, “Steric control of signaling bias in the immunometabolic receptor GPR84” (bioRxiv, 2025).

How the values were obtained:
[1] = target: GPR84-WT (GPR84-Gi2α fusion protein) (Homo sapiens, UniProt Q9NQS5); test: [35S]GTPγS binding assay; format: biochemical; settings: [35S]GTPγS, GPR84-WT; for EC50: Extended Data Table 3, read-out: pEC50 ± SEM (converted)
Description: (§1) Membranes were generated from Flp-In™ T-REx™ 293 cells following 100 ng/ml doxycycline treatment to induce receptor expression. Cells were washed with ice-cold phosphate-buffered saline (PBS), removed from dishes by scraping and centrifuged at 1,800 x g for 5 min at 4 °C. Pellets were resuspended in TE buffer (10mM Tris-HCl, 0.1 mM EDTA; pH 7.4) containing a protease inhibitor mixture and homogenized with a 5 ml hand-held homogenizer. Samples were centrifuged at 450 x g for 5 min at 4 °C and the supernatant was further centrifuged at 90,000 x g for 45 min at 4 °C. The resulting pellet was resuspended in TE buffer and protein content was assessed using a BCA protein assay kit.
(§2) Prepared membrane protein (3 μg per well) was incubated in assay buffer (20 mM HEPES, 5 mM MgCl2, 160 mM NaCl, 0.05 % fatty-acid-free bovine serum albumin; pH 7.4) containing the indicated ligand concentrations. The reaction was initiated by addition of [^35S]GTPγS (100 nCi per reaction) with 1 μM GDP, and incubated at 30 °C for 60 min. The reaction was terminated by rapid vacuum filtration through GF/C glassfibre filter-bottom 96-well microplates using a UniFilter FilterMate Harvester (PerkinElmer). Unbound radioligand was removed from filters by three washes with ice-cold PBS. Ultima Gold™ XR was added to dried filters, and [^35S]GTPγS binding quantified by liquid scintillation spectroscopy.

GPR84 [2] = target: T1, GPR84 (Homo sapiens, UniProt Q9NQS5); test: CHO-K1-based HitHunter cAMP inhibition assay; format: cell-based; settings: wild type GPR84; for EC50: CHO-K1 cells, forskolin 25 μM, read-out: cAMP pEC50 ± SEM (converted); for Emax: normalised to capric acid (100 μM), read-out: cAMP %Emax ± SEM
T1 sequence (Q9NQS5 whole entry): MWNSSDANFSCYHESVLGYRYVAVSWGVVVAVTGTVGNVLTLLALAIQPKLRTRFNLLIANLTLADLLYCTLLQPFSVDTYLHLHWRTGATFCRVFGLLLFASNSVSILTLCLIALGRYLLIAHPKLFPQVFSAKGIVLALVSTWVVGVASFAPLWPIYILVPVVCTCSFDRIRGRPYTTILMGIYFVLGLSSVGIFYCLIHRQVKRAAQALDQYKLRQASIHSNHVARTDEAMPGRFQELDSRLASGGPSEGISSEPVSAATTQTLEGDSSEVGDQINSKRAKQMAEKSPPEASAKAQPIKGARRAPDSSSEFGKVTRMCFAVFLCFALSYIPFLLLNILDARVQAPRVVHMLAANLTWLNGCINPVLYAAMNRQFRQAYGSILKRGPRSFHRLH
Description: CHO-K1 cells stably expressing human GPR84 (DiscoverX 95-0158C2) were seeded in 384-well plates at 15,000 cells per well in 20 μL of F12 medium supplemented with 10% fetal bovine serum (FBS), 19 mM HEPES, and 1% penicillin-streptomycin. After overnight incubation at 37 °C and 5% CO2, the medium was removed and replaced with PBS containing 0.1% BSA. Cells were stimulated for 30 min with forskolin (25 μM) and test compounds prepared in Dulbecco’s PBS (DPBS) with 0.1% BSA. Compounds were dissolved in DMSO and diluted appropriately. cAMP levels were quantified using the HitHunter® cAMP Assay for Small Molecules (DiscoverX 90-0075SM2) according to the manufacturer’s protocol. Luminescence was measured 18 h post-assay using a PHERAstar® FS plate reader (BMG Labtech).

GPR84 [3] = target: T1, GPR84; test: CHO-K1-based PathHunter β-arrestin-2 recruitment assay; format: cell-based; set-up: host or cells: CHO-K1; settings: for Emax: read-out: β-arrestin-2 %Emax ± SEM; for EC50: wild type GPR84, CHO-K1 PathHunter, read-out: β-arrestin-2 pEC50 ± SEM (converted); for change in efficacy in β-arrestin-2 recruitment: compared to OX04929 (so in the source)
Description: Cells were stimulated with test ligands for 90 min. Compounds were prepared at 5× concentration in DPBS containing 0.1% BSA and 0.125% Tween-80 to minimise aggregation. β-arrestin recruitment was quantified using the PathHunter® β-Arrestin Assay (DiscoverX 93-0001) following the manufacturer’s instructions. Luminescence was recorded after 18 h using a PHERAstar® FS plate reader.

GPR84 N362S = target: T2, GPR84 N362S (Homo sapiens, UniProt Q9NQS5, N362S); test: [35S]GTPγS binding assay; format: biochemical; settings: [35S]GTPγS; N362S; read-out: Emax ± SEM
T2 construct: FLAG (N); Gαi2-Cys352Ile (fusion partner) (C); expressed in transfected cells
T2 sequence (Q9NQS5 whole entry N362S, the tested form may be a part): as the sequence (Q9NQS5 whole entry) above, with N362S counted along it
Description: as §1, §2

GPR84 Y332A = target: T3, GPR84 Y332A (Homo sapiens, UniProt Q9NQS5, Y332A); test: [35S]GTPγS binding assay; format: biochemical; settings: [35S]GTPγS; Y332A; read-out: Emax ± SEM
T3 construct: FLAG (N); Gαi2-Cys352Ile (fusion partner) (C); expressed in transfected cells
T3 sequence (Q9NQS5 whole entry Y332A, the tested form may be a part): as the sequence (Q9NQS5 whole entry) above, with Y332A counted along it
Description: as §1, §2

GPR84 Y332F = target: T4, GPR84 Y332F (Homo sapiens, UniProt Q9NQS5, Y332F); test: [35S]GTPγS binding assay; format: biochemical; settings: [35S]GTPγS; Y332F; read-out: Emax ± SEM
T4 construct: FLAG (N); Gαi2-Cys352Ile (fusion partner) (C); expressed in transfected cells
T4 sequence (Q9NQS5 whole entry Y332F, the tested form may be a part): as the sequence (Q9NQS5 whole entry) above, with Y332F counted along it
Description: as §1, §2

[4] = target: T5, GPR84 N104A (GPR84-Gi2α fusion protein) (Homo sapiens, UniProt Q9NQS5, N104A); test: [35S]GTPγS binding assay; format: biochemical; settings: [35S]GTPγS; N104A; read-out: Emax ± SEM
T5 construct: FLAG (N); Gαi2-Cys352Ile (fusion partner) (C); expressed in transfected cells
T5 sequence (Q9NQS5 whole entry N104A, the tested form may be a part): as the sequence (Q9NQS5 whole entry) above, with N104A counted along it
Description: as §1, §2

[5] = target: T6, GPR84 R172A (GPR84-Gi2α fusion protein) (Homo sapiens, UniProt Q9NQS5, R172A); test: [35S]GTPγS binding assay; format: biochemical
T6 construct: FLAG (N); Gαi2-Cys352Ile (fusion partner) (C); expressed in transfected cells
T6 sequence (Q9NQS5 whole entry R172A, the tested form may be a part): as the sequence (Q9NQS5 whole entry) above, with R172A counted along it
Description: as §1, §2

[6] = target: T7, GPR84 S169A (GPR84-Gi2α fusion protein) (Homo sapiens, UniProt Q9NQS5, S169A); test: [35S]GTPγS binding assay; format: biochemical; settings: [35S]GTPγS; S169A; read-out: Emax ± SEM
T7 construct: FLAG (N); Gαi2-Cys352Ile (fusion partner) (C); expressed in transfected cells
T7 sequence (Q9NQS5 whole entry S169A, the tested form may be a part): as the sequence (Q9NQS5 whole entry) above, with S169A counted along it
Description: as §1, §2

[7] = target: T8, GPR84 T167A (GPR84-Gi2α fusion protein) (Homo sapiens, UniProt Q9NQS5, T167A); test: [35S]GTPγS binding assay; format: biochemical; settings: [35S]GTPγS; T167A; read-out: Emax ± SEM
T8 construct: FLAG (N); Gαi2-Cys352Ile (fusion partner) (C); expressed in transfected cells
T8 sequence (Q9NQS5 whole entry T167A, the tested form may be a part): as the sequence (Q9NQS5 whole entry) above, with T167A counted along it
Description: as §1, §2

[8] = target: T9, GPR84 W360A (GPR84-Gi2α fusion protein) (Homo sapiens, UniProt Q9NQS5, W360A); test: [35S]GTPγS binding assay; format: biochemical; settings: [35S]GTPγS; W360A; read-out: Emax ± SEM
T9 construct: FLAG (N); Gαi2-Cys352Ile (fusion partner) (C); expressed in transfected cells
T9 sequence (Q9NQS5 whole entry W360A, the tested form may be a part): as the sequence (Q9NQS5 whole entry) above, with W360A counted along it
Description: as §1, §2

[9] = target: T10, GPR84 Y69A (GPR84-Gi2α fusion protein) (Homo sapiens, UniProt Q9NQS5, Y69A); test: [35S]GTPγS binding assay; format: biochemical; settings: [35S]GTPγS; Y69A; read-out: Emax ± SEM
T10 construct: FLAG (N); Gαi2-Cys352Ile (fusion partner) (C); expressed in transfected cells
T10 sequence (Q9NQS5 whole entry Y69A, the tested form may be a part): as the sequence (Q9NQS5 whole entry) above, with Y69A counted along it
Description: as §1, §2

[10] = target: T11, GPR84 Y81A (GPR84-Gi2α fusion protein) (Homo sapiens, UniProt Q9NQS5, Y81A); test: [35S]GTPγS binding assay; format: biochemical; settings: [35S]GTPγS; Y81A; read-out: Emax ± SEM
T11 construct: FLAG (N); Gαi2-Cys352Ile (fusion partner) (C); expressed in transfected cells
T11 sequence (Q9NQS5 whole entry Y81A, the tested form may be a part): as the sequence (Q9NQS5 whole entry) above, with Y81A counted along it
Description: as §1, §2

wild type GPR84 = target: T12, wild type GPR84 (Homo sapiens, UniProt Q9NQS5); test: pThr263/pThr264 immunoblot of immunoprecipitated GPR84-eYFP; format: cell-based; settings: 1 μM
T12 construct: expressed in transfected cells
T12 sequence (Q9NQS5 whole entry): as the sequence (Q9NQS5 whole entry) above
Description: eYFP-linked receptor constructs were immunoprecipitated from 200 μl cell lysates using GFP-Trap® agarose beads (Proteintech) according to manufacturer’s instructions. Immunocomplexes were washed three times in washing buffer, resuspended in 100 μl 2 × SDS-PAGE sample buffer and incubated at 60 °C for 10 min. Following centrifugation at 2500g for 5 min, 20 μl of immunoprecipitated proteins was resolved by SDS-PAGE on 4% to 12% BisTris gels. After separation, the proteins were transferred electrophoretically onto nitrocellulose membrane, which was then blocked using 5% bovine serum albumin (BSA) in Tris-buffered saline (TBS, 50 mM Tris-Cl, 150 mM NaCl, pH 7.6) for 1 h at room temperature on an orbital shaker. The membrane was then incubated with appropriate primary antibody in 5% BSA in TBS supplemented with 0.1% Tween (TBS-T) overnight at 4 °C. Anti-pThr^263/pThr^264 antiserum was diluted 1:2000 and anti-GFP was diluted 1:10,000. Subsequently, the membrane was washed (3 × 10 min with TBS-T) and incubated for 2 h with anti-rabbit secondary antibody diluted 1:10,000 in 5% BSA in TBS-T. After washing (3 × 10 min with TBS-T), proteins were detected using an Odyssey imaging system (Licor) according to the manufacturer’s instructions.

Sequence of GPR84-WT (GPR84-Gi2α fusion protein) (Q9NQS5 whole entry, the tested form may be a part): as the sequence (Q9NQS5 whole entry) above
Sequence of GPR84-WT (GPR84-Gi2α fusion protein) (P04899 with tags, fused parts or gaps C352I partner): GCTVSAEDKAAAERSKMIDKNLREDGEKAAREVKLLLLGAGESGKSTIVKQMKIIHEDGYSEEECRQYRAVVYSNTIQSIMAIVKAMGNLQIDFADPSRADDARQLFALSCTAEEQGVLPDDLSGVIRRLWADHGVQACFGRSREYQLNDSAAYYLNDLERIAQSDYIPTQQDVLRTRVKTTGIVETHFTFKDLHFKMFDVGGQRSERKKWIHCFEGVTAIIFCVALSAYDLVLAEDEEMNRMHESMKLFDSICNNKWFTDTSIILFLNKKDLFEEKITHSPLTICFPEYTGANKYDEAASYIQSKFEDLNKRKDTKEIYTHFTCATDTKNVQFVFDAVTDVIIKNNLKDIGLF

SMILES | EC50 (GPR84 [2]) [nM] | Emax (GPR84 [2]) [%] | Emax (GPR84 [3]) [%] | EC50 (GPR84 [3]) [nM] | change in efficacy in β-arrestin-2 recruitment (GPR84 [3]) | other results
[O-][n+]1cc(O)cc(CCCCc2ccc(Cl)c(CF)c2)c1 [OX04960] | 0.0102 | 107 ± 2.1 | 45 ± 1.2 | 447 | – | EC50 [1]: 6.31 nM
Fc1cc(F)c2[nH]cc(Cc3c[nH]c4c(F)cc(F)cc34)c2c1 [PSB-16671, di(5,7-difluoro-1H-indole-3-yl)methane, reference compound] | – | – | – | – | – | Emax (GPR84 N362S): 100%; Emax (GPR84 Y332A): 100%; Emax (GPR84 Y332F): 100%
C=Cc1cc(CCCCc2cc(O)c[n+]([O-])c2)ccc1Cl [OX04962] | 0.00933 | 97 ± 3.4 | 18 ± 2.2 | 178 | no significant change | –
CC(C)c1cc(CCCCc2cc(O)c[n+]([O-])c2)ccc1Cl [OX04964] | 0.0145 | 94 ± 7.4 | 9 ± 1.4 | – | no significant change | –
[O-][n+]1cc(O)cc(CCCCc2ccc(Cl)c(CO)c2)c1 [OX04955] | 0.0355 | 101 ± 1.5 | 21 ± 2.9 | 263 | – | –
[O-][n+]1cc(O)cc(CCCCc2ccc(Cl)c(F)c2)c1 [OX04958] | 0.0407 | 99 ± 0.1 | 72 ± 1.3 | 70.8 | – | –
[O-][n+]1cc(O)cc(CCCCc2ccc(Cl)cc2)c1 [OX04540] | 0.0204 | 97 ± 0.7 | 81 ± 5.3 | 110 | – | –
CCCCCCCc1cc(O)c[n+]([O-])c1 [OX04539] | – | 100 ± 0.8 | 100 | – | – | Emax [4]: 150 ± 23%; Emax (GPR84 N362S): 196 ± 32%; Emax [5]: 42 ± 4%; Emax [6]: 84 ± 4%; Emax [7]: 139 ± 7%; Emax [8]: 94 ± 13%; Emax (GPR84 Y332A): 57 ± 10%; Emax (GPR84 Y332F): 167 ± 2%; Emax [9]: 101 ± 14%; Emax [10]: 134 ± 5%; Emax ([1]; Extended Data Tables 1 and 5, read-out: Emax ± SEM): 150 ± 14%; phosphorylation of Thr263 and Thr264 (immunoblot) (wild type GPR84): promoted phosphorylation
C#Cc1cc(CCCCc2cc(O)c[n+]([O-])c2)ccc1Cl [OX04963] | 0.00646 | 106 ± 3.8 | 15 ± 1.1 | 37.2 | – | –
[O-][n+]1cc(O)cc(CCCCc2ccc(Cl)c(Br)c2)c1 [OX04956] | 0.00912 | 98 ± 2.1 | 34 ± 6 | 138 | – | –
CCc1cc(CCCCc2cc(O)c[n+]([O-])c2)ccc1Cl [OX04961] | 0.0112 | 103 ± 3.6 | 21 ± 0.3 | 39.8 | no significant change | –
[O-][n+]1cc(O)cc(CCCCc2ccc(Cl)c(C3CC3)c2)c1 [OX04965] | 0.00398 | 103 ± 3.7 | 9 ± 3 | – | no significant change | –
[O-][n+]1cc(O)cc(CCCCc2ccc(Cl)c(C(F)F)c2)c1 [OX04959] | 0.00724 | 95 ± 11.5 | 24 ± 2.3 | 151 | – | EC50 [1]: 3.98 nM
[O-][n+]1cc(O)cc(CCCCc2ccc(Cl)c(Cl)c2)c1 [OX04957] | 0.0389 | 102 ± 3 | 46 ± 5.8 | 209 | – | –
CC1(c2cc(CCCCc3cc(O)c[n+]([O-])c3)ccc2Cl)CC1 [OX04966] | 0.17 | 107 ± 5.6 | 5 ± 1.5 | – | no significant change | –
